Data reported in PubChem BioAssay (NCI).
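Cells were grown in 96-well plates and exposed to each compound for 48 hours at five concentrations; endpoints were interpolated linearly between bracketing concentrations, or set to the highest concentration if not reached. GI50 = concentration required for 50% inhibition of growth. TGI denotes the concentration required for complete inhibition of growth.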

Legend:
Test in all cases: growth of human tumour cells (NCI), 48 h
MDA-MB-468 breast = test system: MDA-MB-468 breast
A549 NSCLC = test system: A549 NSCLC
IGROV1 ovarian = test system: IGROV1 ovarian
MALME-3M melanoma = test system: MALME-3M melanoma
SK-OV-3 ovarian = test system: SK-OV-3 ovarian
HL-60(TB) leukemia = test system: HL-60(TB) leukemia
ACHN renal = test system: ACHN renal
UO-31 renal = test system: UO-31 renal
SF-268 CNS = test system: SF-268 CNS
CCRF-CEM leukemia = test system: CCRF-CEM leukemia
RPMI-8226 leukemia = test system: RPMI-8226 leukemia
SW-620 colon = test system: SW-620 colon
TK-10 renal = test system: TK-10 renal
786-0 renal = test system: 786-0 renal
SF-539 CNS = test system: SF-539 CNS
COLO 205 colon = test system: COLO 205 colon
DU-145 prostate = test system: DU-145 prostate
HCC-2998 colon = test system: HCC-2998 colon
BT-549 breast = test system: BT-549 breast
NCI-H460 lung = test system: NCI-H460 lung
SNB-19 CNS = test system: SNB-19 CNS
SK-MEL-2 melanoma = test system: SK-MEL-2 melanoma
CAKI-1 renal = test system: CAKI-1 renal
SF-295 CNS = test system: SF-295 CNS
HT29 colon = test system: HT29 colon
SK-MEL-5 melanoma = test system: SK-MEL-5 melanoma
SN12C renal = test system: SN12C renal
HS 578T breast = test system: HS 578T breast
MDA-MB-435 = test system: MDA-MB-435
EKVX NSCLC = test system: EKVX NSCLC
HOP-62 NSCLC = test system: HOP-62 NSCLC
OVCAR-8 ovarian = test system: OVCAR-8 ovarian
HCT-15 colon = test system: HCT-15 colon
SR leukemia = test system: SR leukemia
SK-MEL-28 melanoma = test system: SK-MEL-28 melanoma
MOLT-4 leukemia = test system: MOLT-4 leukemia
T-47D breast = test system: T-47D breast
M14 melanoma = test system: M14 melanoma
A498 renal = test system: A498 renal
PC-3 prostate = test system: PC-3 prostate
UACC-257 melanoma = test system: UACC-257 melanoma
OVCAR-3 ovarian = test system: OVCAR-3 ovarian
MCF7 breast = test system: MCF7 breast
MDA-MB-231 breast = test system: MDA-MB-231 breast
NCI-H522 lung = test system: NCI-H522 lung
RXF 393 renal = test system: RXF 393 renal
OVCAR-4 ovarian = test system: OVCAR-4 ovarian
HOP-92 NSCLC = test system: HOP-92 NSCLC
OVCAR-5 ovarian = test system: OVCAR-5 ovarian
HCT-116 colon = test system: HCT-116 colon
K-562 leukemia = test system: K-562 leukemia
UACC-62 melanoma = test system: UACC-62 melanoma
NCI-H23 lung = test system: NCI-H23 lung
NCI-H226 lung = test system: NCI-H226 lung
U251 CNS = test system: U251 CNS
KM12 colon = test system: KM12 colon
SNB-75 CNS = test system: SNB-75 CNS

Question: With N#Cc1c(-c2ccc(Cl)cc2)nc2n[nH]c(-c3ccc(Cl)cc3)c2c1-c1ccc(C(F)(F)F)cc1 as the molecule, how does the GI50 (MDA-MB-468 breast) read?
Answer: 2.59 µM

Question: What about the TGI (MDA-MB-468 breast) of the same molecule?
Answer: 9.55 µM

Question: And the GI50 (A549 NSCLC)?
Answer: 3.45 µM

Question: And the TGI (A549 NSCLC)?
Answer: 12 µM

Question: What about the GI50 (IGROV1 ovarian) of the same molecule?
Answer: 1.92 µM

Question: And the TGI (IGROV1 ovarian)?
Answer: 6.49 µM

Question: What about the GI50 (MALME-3M melanoma) of the same molecule?
Answer: 1.98 µM

Question: And the TGI (MALME-3M melanoma)?
Answer: 4.86 µM

Question: What about the GI50 (SK-OV-3 ovarian) of the same molecule?
Answer: 3.03 µM

Question: What about the TGI (SK-OV-3 ovarian) of the same molecule?
Answer: 10.2 µM

Question: And the GI50 (HL-60(TB) leukemia)?
Answer: 1.79 µM

Question: And the TGI (HL-60(TB) leukemia)?
Answer: 4.79 µM

Question: What about the GI50 (ACHN renal) of the same molecule?
Answer: 2.85 µM

Question: And the TGI (ACHN renal)?
Answer: 9.97 µM

Question: What about the GI50 (UO-31 renal) of the same molecule?
Answer: 2.1 µM

Question: And the TGI (UO-31 renal)?
Answer: 8.61 µM

Question: And the GI50 (SF-268 CNS)?
Answer: 2.92 µM

Question: What about the TGI (SF-268 CNS) of the same molecule?
Answer: 11.5 µM

Question: What about the GI50 (CCRF-CEM leukemia) of the same molecule?
Answer: 2.18 µM

Question: And the TGI (CCRF-CEM leukemia)?
Answer: 6.57 µM

Question: What about the GI50 (RPMI-8226 leukemia) of the same molecule?
Answer: 1.93 µM

Question: What about the TGI (RPMI-8226 leukemia) of the same molecule?
Answer: 6.27 µM

Question: And the GI50 (SW-620 colon)?
Answer: 2.76 µM

Question: What about the TGI (SW-620 colon) of the same molecule?
Answer: 10.8 µM

Question: And the GI50 (TK-10 renal)?
Answer: 3.99 µM

Question: What about the TGI (TK-10 renal) of the same molecule?
Answer: 15.6 µM

Question: And the GI50 (786-0 renal)?
Answer: 2.57 µM

Question: And the TGI (786-0 renal)?
Answer: 7.55 µM

Question: And the GI50 (SF-539 CNS)?
Answer: 1.85 µM

Question: What about the TGI (SF-539 CNS) of the same molecule?
Answer: 3.76 µM

Question: What about the GI50 (COLO 205 colon) of the same molecule?
Answer: 1.71 µM

Question: And the TGI (COLO 205 colon)?
Answer: 3.24 µM

Question: And the GI50 (DU-145 prostate)?
Answer: 3.6 µM

Question: And the TGI (DU-145 prostate)?
Answer: 15.9 µM

Question: What about the GI50 (HCC-2998 colon) of the same molecule?
Answer: 2.29 µM

Question: What about the TGI (HCC-2998 colon) of the same molecule?
Answer: 5.36 µM

Question: And the GI50 (BT-549 breast)?
Answer: 2.17 µM

Question: And the TGI (BT-549 breast)?
Answer: 4.78 µM

Question: What about the GI50 (NCI-H460 lung) of the same molecule?
Answer: 2.08 µM

Question: What about the TGI (NCI-H460 lung) of the same molecule?
Answer: 4.57 µM

Question: What about the GI50 (SNB-19 CNS) of the same molecule?
Answer: 3.38 µM

Question: What about the TGI (SNB-19 CNS) of the same molecule?
Answer: 14.7 µM

Question: What about the GI50 (SK-MEL-2 melanoma) of the same molecule?
Answer: 1.72 µM

Question: What about the TGI (SK-MEL-2 melanoma) of the same molecule?
Answer: 3.26 µM

Question: What about the GI50 (CAKI-1 renal) of the same molecule?
Answer: 2 µM

Question: And the TGI (CAKI-1 renal)?
Answer: 7.2 µM

Question: And the GI50 (SF-295 CNS)?
Answer: 2.62 µM

Question: And the TGI (SF-295 CNS)?
Answer: 8.3 µM

Question: What about the GI50 (HT29 colon) of the same molecule?
Answer: 2.77 µM

Question: And the TGI (HT29 colon)?
Answer: 10.9 µM

Question: And the GI50 (SK-MEL-5 melanoma)?
Answer: 1.92 µM

Question: What about the TGI (SK-MEL-5 melanoma) of the same molecule?
Answer: 3.79 µM

Question: And the GI50 (SN12C renal)?
Answer: 2.59 µM

Question: And the TGI (SN12C renal)?
Answer: 8.35 µM

Question: And the GI50 (HS 578T breast)?
Answer: 2.23 µM

Question: What about the TGI (HS 578T breast) of the same molecule?
Answer: 7.18 µM

Question: What about the GI50 (MDA-MB-435) of the same molecule?
Answer: 2.1 µM

Question: What about the TGI (MDA-MB-435) of the same molecule?
Answer: 4.86 µM

Question: And the GI50 (EKVX NSCLC)?
Answer: 2.71 µM

Question: What about the TGI (EKVX NSCLC) of the same molecule?
Answer: 11.4 µM

Question: What about the GI50 (HOP-62 NSCLC) of the same molecule?
Answer: 3.06 µM

Question: And the TGI (HOP-62 NSCLC)?
Answer: 9.84 µM

Question: And the GI50 (OVCAR-8 ovarian)?
Answer: 3.23 µM

Question: What about the TGI (OVCAR-8 ovarian) of the same molecule?
Answer: 12.5 µM

Question: What about the GI50 (HCT-15 colon) of the same molecule?
Answer: 2.57 µM

Question: What about the TGI (HCT-15 colon) of the same molecule?
Answer: 10.4 µM

Question: What about the GI50 (SR leukemia) of the same molecule?
Answer: 1.69 µM

Question: What about the TGI (SR leukemia) of the same molecule?
Answer: 4.42 µM

Question: What about the GI50 (SK-MEL-28 melanoma) of the same molecule?
Answer: 2.68 µM

Question: And the TGI (SK-MEL-28 melanoma)?
Answer: 8.7 µM

Question: And the GI50 (MOLT-4 leukemia)?
Answer: 1.72 µM

Question: What about the TGI (MOLT-4 leukemia) of the same molecule?
Answer: 6.12 µM

Question: What about the GI50 (T-47D breast) of the same molecule?
Answer: 2.53 µM

Question: What about the TGI (T-47D breast) of the same molecule?
Answer: 8.38 µM

Question: What about the GI50 (M14 melanoma) of the same molecule?
Answer: 2.17 µM

Question: And the TGI (M14 melanoma)?
Answer: 5.53 µM

Question: What about the GI50 (A498 renal) of the same molecule?
Answer: 3.1 µM

Question: What about the TGI (A498 renal) of the same molecule?
Answer: 8.71 µM

Question: And the GI50 (PC-3 prostate)?
Answer: 2.25 µM

Question: And the TGI (PC-3 prostate)?
Answer: 9.31 µM

Question: And the GI50 (UACC-257 melanoma)?
Answer: 2.72 µM

Question: What about the TGI (UACC-257 melanoma) of the same molecule?
Answer: 8 µM

Question: What about the GI50 (OVCAR-3 ovarian) of the same molecule?
Answer: 2.19 µM

Question: What about the TGI (OVCAR-3 ovarian) of the same molecule?
Answer: 5.07 µM

Question: What about the GI50 (MCF7 breast) of the same molecule?
Answer: 2.43 µM

Question: What about the TGI (MCF7 breast) of the same molecule?
Answer: 10.8 µM

Question: And the GI50 (MDA-MB-231 breast)?
Answer: 2.12 µM

Question: And the TGI (MDA-MB-231 breast)?
Answer: 4.64 µM

Question: What about the GI50 (NCI-H522 lung) of the same molecule?
Answer: 2.03 µM

Question: And the TGI (NCI-H522 lung)?
Answer: 5.68 µM

Question: And the GI50 (RXF 393 renal)?
Answer: 2.64 µM

Question: And the TGI (RXF 393 renal)?
Answer: 9.54 µM

Question: What about the GI50 (OVCAR-4 ovarian) of the same molecule?
Answer: 2.5 µM

Question: And the TGI (OVCAR-4 ovarian)?
Answer: 8.38 µM

Question: And the GI50 (HOP-92 NSCLC)?
Answer: 1.57 µM

Question: And the TGI (HOP-92 NSCLC)?
Answer: 4.37 µM

Question: What about the GI50 (OVCAR-5 ovarian) of the same molecule?
Answer: 2.16 µM

Question: What about the TGI (OVCAR-5 ovarian) of the same molecule?
Answer: 5.22 µM

Question: And the GI50 (HCT-116 colon)?
Answer: 1.61 µM

Question: And the TGI (HCT-116 colon)?
Answer: 3.74 µM

Question: What about the GI50 (K-562 leukemia) of the same molecule?
Answer: 2.09 µM

Question: What about the TGI (K-562 leukemia) of the same molecule?
Answer: 5.91 µM

Question: What about the GI50 (UACC-62 melanoma) of the same molecule?
Answer: 1.87 µM

Question: What about the TGI (UACC-62 melanoma) of the same molecule?
Answer: 5.57 µM

Question: And the GI50 (NCI-H23 lung)?
Answer: 2.24 µM

Question: And the TGI (NCI-H23 lung)?
Answer: 7.68 µM

Question: What about the GI50 (NCI-H226 lung) of the same molecule?
Answer: 2.37 µM

Question: And the TGI (NCI-H226 lung)?
Answer: 8.97 µM

Question: What about the GI50 (U251 CNS) of the same molecule?
Answer: 3.03 µM

Question: What about the TGI (U251 CNS) of the same molecule?
Answer: 11.2 µM

Question: And the GI50 (KM12 colon)?
Answer: 2.49 µM

Question: What about the TGI (KM12 colon) of the same molecule?
Answer: 8.32 µM

Question: What about the GI50 (SNB-75 CNS) of the same molecule?
Answer: 1.75 µM

Question: And the TGI (SNB-75 CNS)?
Answer: 6.59 µM
